Assay [1] has as its target T1, Tyrosine-protein phosphatase non-receptor type 1 (Homo sapiens, UniProt P18031).
T1 sequence (P18031 whole entry): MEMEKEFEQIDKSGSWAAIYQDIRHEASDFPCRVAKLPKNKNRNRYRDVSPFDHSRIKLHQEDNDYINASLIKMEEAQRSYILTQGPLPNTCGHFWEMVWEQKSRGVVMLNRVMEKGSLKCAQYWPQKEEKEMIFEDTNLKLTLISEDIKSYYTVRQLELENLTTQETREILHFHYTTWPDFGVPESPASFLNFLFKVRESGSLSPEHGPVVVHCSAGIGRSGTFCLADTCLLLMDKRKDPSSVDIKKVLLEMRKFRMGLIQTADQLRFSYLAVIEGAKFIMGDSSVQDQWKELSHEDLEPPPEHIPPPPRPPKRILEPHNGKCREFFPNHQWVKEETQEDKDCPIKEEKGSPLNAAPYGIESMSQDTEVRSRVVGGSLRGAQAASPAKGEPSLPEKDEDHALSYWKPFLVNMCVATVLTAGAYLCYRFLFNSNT
Briefly: Inhibition of recombinant PTP1B catalytic domain using pNPP as substrate assessed as pNP release.

Another assay has as its system A549. Briefly: Cytotoxicity against human A549 cells after 48 hrs by MTT assay. Format: functional, cell-based. The note with it: A549, 48 h.
For a further assay, the system named is HeLa. Briefly: Cytotoxicity against human HeLa cells after 48 hrs by MTT assay. Format: functional, cell-based.
Assay [2] has as its target Protein kinase C gamma type (Homo sapiens, UniProt P05129). In words: Binding affinity at PKCgamma after 1 hr by luminescent kinase assay.
The next assay deals with HCT-116. In words: Cytotoxicity against human HCT116 cells after 48 hrs by MTT assay. The note with it: HCT-116, 48 h. Format: functional, cell-based.
Assay [3] has as its target Protein kinase C alpha type (Homo sapiens, UniProt P17252). In words: Binding affinity at PKCalpha after 1 hr by luminescent kinase assay.

This passage reports IC50 results from ChEMBL document CHEMBL1781952, “Hippolides A-H, acyclic manoalide derivatives from the marine sponge Hippospongia lachne” (J Nat Prod, 2011).

pIC50: −log10 of the molar value.

On to `CC(C)=CCC/C(C)=C/CC/C(C)=C/CCC1=CC[C@H]([C@@H]2CC(=O)NC2=O)O[C@@H]1O` [HIPPOLIDE A], for which the pIC50 in assay [1] was 4.62; with A549 it was 7.28; in the assay with HeLa, 7.32; in assay [2], 4.21; with HCT-116 it was 5.01.

In assay [3], `CC(C)=CCC/C(C)=C/CC/C(C)=C/CC/C(=C\C[C@H]1OC(=O)C=C1CO)CO` [HIPPOLIDE E] had a pIC50 of 4.39.

For `CO[C@H]1O[C@@H]([C@@H]2CC(=O)NC2=O)CC=C1CC/C=C(\C)CC/C=C(\C)CCC=C(C)C` [HIPPOLIDE B], the negative-log IC50 (pIC50) in assay [1] is 4.40; with HCT-116, 4.45.
